Values of other authors in patent US20130030007A1, “Obesity Small Molecules” (AKRON MOLECULES GMBH, priority 2010, published 2013).
Non-standard residues stand in square brackets, D forms with d. Residues, ends and D or L forms follow the SMILES beside them. *: point of attachment. Sta = CC(C)C[C@H](N)[C@@H](O)CC(=O)O; Isovaleryl = CC(C)CC(=O)*

Test system: human ortholog of Drosophila obesity gene
Design: key: O: Obesity - obesity pathway interaction; B: validated binding partner
Settings: cited from earlier work

| Compound | Type: Type of interaction |
| --- | --- |
| CN(C)CC1CCCCC1(O)c1cccc(O)c1 (stereo not shown) [O-demethyltramadol] | O |
| Oc1ccccc1OC(c1ccccc1)C1CNCCO1 (stereo not shown) [O-desethylreboxetine] | B |
| C[C@@H](O)[C@@H]1NC(=O)[C@H](CCCCN)NC(=O)[C@@H](Cc2c[nH]c3ccccc23)NC(=O)[C@H](Cc2ccccc2)NC(=O)[C@@H](NC(=O)[C@H](N)Cc2ccccc2)CSSC[C@@H](C(=O)N[C@H](CO)[C@@H](C)O)NC1=O [Octreotide] | B and O |
| C[Si](Cn1cncn1)(c1ccc(F)cc1)c1ccc(F)cc1 [Olymp] | O |
| C[C@]12CCC(=O)C=C1CC[C@@H]1[C@@H]2[C@@H](O)C[C@@]2(C)[C@H]1CC[C@]2(O)C(=O)CO [Optef] | O |
| NCCc1cc(O)c(O)cc1O [Oxidopamine] | B |
| COc1cccc(-c2cc(=O)c3ccccc3o2)c1N [PD 98059] | B |
| O=[N+]([O-])c1ccc(-c2nc(-c3ccc(F)cc3)c(-c3ccncc3)[nH]2)cc1 [PD 169316] | B |
| CCN(CC)CCCCNc1ncc2cc(-c3cc(OC)cc(OC)c3)c(NC(=O)NC(C)(C)C)nc2n1 [PD 173074] | B |
| CCCC(=O)O[C@@H]1[C@@H](C)[C@@]2(O)[C@@H](C=C(CO)C[C@]3(O)C(=O)C(C)=C[C@@H]23)[C@@H]2C(C)(C)[C@]12OC(=O)CCC [PDBU] | O |
| O=S(=O)(F)Cc1ccccc1 [PMSF] | O |
| O=C1C=C2C(=CCOC2O)O1 (stereo not shown) [Patulin] | O |
| CC1=C\[C@H](C)C[C@@]2(C)CC[C@@H](O2)[C@@]23CC[C@@](C)(C[C@@H](O2)[C@H]2O[C@](C)(CC2=O)[C@@H](O)[C@@H]2CC[C@@]4(CCC[C@H](O4)[C@@H](C)C(=O)O[C@@H]4C[C@@H]([C@@]5(O)OCC[C@@H](C)[C@H]5O)O[C@@H]4\C=C\1)O2)O3 [Pectenotoxin II] | B |
| Cc1c(N)nc([C@H](CC(N)=O)NC[C@H](N)C(N)=O)nc1C(=O)N[C@H](C(=O)N[C@H](C)[C@@H](O)[C@H](C)C(=O)N[C@H](C(=O)NCCc1nc(-c2nc(C(=O)NCCCN[C@@H](C)c3ccccc3)cs2)cs1)[C@@H](C)O)[C@@H](O[C@@H]1O[C@@H](CO)[C@@H](O)[C@H](O)[C@@H]1O[C@H]1O[C@H](CO)[C@@H](O)[C@H](OC(N)=O)[C@@H]1O)c1c[nH]cn1 [Peplomycin] | B |
| CC(C)CC(=O)N[C@H](C(=O)N[C@H](C(=O)N[C@@H](CC(C)C)[C@@H](O)CC(=O)N[C@@H](C)C(=O)N[C@@H](CC(C)C)[C@@H](O)CC(=O)O)C(C)C)C(C)C [Pepstatin A] (Isovaleryl-VV[Sta]A[Sta]-OH) | O |
| CCCc1cc(=O)[nH]c(=S)[nH]1 [Procasil] | O |
| CC(C)OC(=O)C(C)(C)Oc1ccc(C(=O)c2ccc(Cl)cc2)cc1 [Procetofen] | O |
| CC(=O)[C@@]1(O)CC[C@H]2[C@@H]3CCC4=CC(=O)CC[C@]4(C)[C@H]3CC[C@@]21C [Prodix] | B |
| CC(C)c1cccc(C(C)C)c1O [Propofol] | B |
| Cc1cc(O)c2c(=O)c3c(O)cc(O)c4c5c(O)cc(O)c6c(=O)c7c(O)cc(CO)c8c1c2c(c34)c(c65)c78 [Pseudohypericin] | O |
| O[C@]12C=C(c3nccc4c3[nH]c3ccccc34)[C@@H]3CCN(CCCC/C=C\CC1)C[C@@]31C[C@@H]3/C=C\CCCCN3[C@H]12 [manzamine A] | O |
| COc1ccc2c(c1)[C@@]13CCCC[C@H]1[C@@H](C2)NCC3 [methoxymorphinan] | O |
| CO[C@H](C(=O)[C@@H](O)[C@@H](C)O)[C@@H]1Cc2cc3cc(O[C@H]4C[C@@H](O[C@H]5C[C@@H](O)[C@H](O)[C@@H](C)O5)[C@H](O)[C@@H](C)O4)c(C)c(O)c3c(O)c2C(=O)[C@H]1O[C@H]1C[C@@H](O[C@H]2C[C@@H](O[C@H]3C[C@](C)(O)[C@H](O)[C@@H](C)O3)[C@@H](O)[C@@H](C)O2)[C@H](O)[C@@H](C)O1 [mithramycin A] | B |
| CNCc1nnc2n1-c1ccc(Cl)cc1C(c1ccccc1)=NC2 [mono-N-demethyladinazolam] | O |
| C[C@@H]1C[C@H]2O[C@@H]2/C=C\C=C\C(=O)Cc2cc(O)cc(O)c2C(=O)O1 [monocillin I] | O |
| CN1CC[C@]23c4c5ccc(O[C@@H]6O[C@H](C(=O)O)[C@@H](O)[C@H](O)[C@H]6O)c4O[C@H]2[C@@H](O)C=C[C@H]3[C@H]1C5 [morphine-3-glucuronide] | B |
| CC1CC(=O)NN=C1c1cc(-n2ccnc2)cs1 (stereo not shown) [motapizone] | O |
| Oc1ccc2c3c1O[C@H]1c4[nH]c5ccccc5c4C[C@@]4(O)[C@@H](C2)N(CC2CC2)CC[C@]314 [naltrindole] | B |
| CO[C@H]1CC[C@@H](O[C@H]2C[C@H]([C@]3(C)CC[C@]4(C[C@H](O)[C@@H](C)[C@@H]([C@@H](C)/C=C(\C)C(=O)[C@H](C)C[C@H](C)C(=O)O)O4)O3)O[C@]3(O[C@@H]([C@H]4O[C@@](O)(CO)[C@H](C)C[C@@H]4C)C[C@@H]3C)[C@@H]2C)O[C@@H]1C [nanchangmycin] | O |
| [NH2][Pt]1([NH2])[O]CC(=O)[O]1 [nedaplatin] | O |

Same assay, conditions: interaction of the small molecule with the human ortholog(s) / Drosophila gene(s) listed in the same table line; cited from earlier work

| Compound | Type: Type of interaction |
| --- | --- |
| O=C(Nc1ccc(OC(F)(F)F)cc1)c1sccc1NCc1ccnc2ccccc12 [OSI 930] | O |
| NCC(=O)Nc1ccc(-n2nc(C(F)(F)F)cc2-c2ccc3c(ccc4ccccc43)c2)cc1 [OSU 03012] | B |
| NCCO [Olamine] | B |
| Cc1nccn1CC1CCc2c(c3ccccc3n2C)C1=O (stereo not shown) [Ondansetron] | O |
| CO[C@H]1O[C@H](COS(=O)(=O)O)[C@@H](O[C@@H]2O[C@@H](C(=O)O)[C@@H](O[C@H]3O[C@H](COS(=O)(=O)O)[C@@H](O[C@@H]4O[C@H](C(=O)O)[C@@H](O[C@H]5O[C@H](COS(=O)(=O)O)[C@@H](O)[C@H](O)[C@H]5NS(=O)(=O)O)[C@H](O)[C@H]4O)[C@H](OS(=O)(=O)O)[C@H]3NS(=O)(=O)O)[C@H](O)[C@H]2OS(=O)(=O)O)[C@H](O)[C@H]1NS(=O)(=O)O [Org 31540] | B |
| Cc1ccccc1C(OCCN(C)C)c1ccccc1 (stereo not shown) [Orphenadrine] | O |
| C[C@@H]1O[C@@H](O[C@H]2C[C@@H](O)[C@]3(CO)[C@H]4[C@H](O)C[C@]5(C)[C@@H](C6=CC(=O)OC6)CC[C@]5(O)[C@@H]4CC[C@]3(O)C2)[C@H](O)[C@H](O)[C@H]1O [Ouabain] | B |
| CCN(CC)CC#CCOC(=O)C(O)(c1ccccc1)C1CCCCC1 (stereo not shown) [Oxytrol] | O |
| CC(=O)O[C@H]1C(=O)[C@@]2(C)[C@H]([C@H](OC(=O)c3ccccc3)[C@]3(O)C[C@H](OC(=O)[C@H](O)[C@@H](NC(=O)c4ccccc4)c4ccccc4)C(C)=C1C3(C)C)[C@]1(OC(C)=O)CO[C@@H]1C[C@@H]2O [Paclitaxel] | B |
| Nc1nc2[nH]cc(CCc3ccc(C(=O)N[C@@H](CCC(=O)O)C(=O)O)cc3)c2c(=O)[nH]1 [Pemetrexed] | B |
| CC(=O)CCCCn1c(=O)c2c(ncn2C)n(C)c1=O [Pentoxifylline] | B |
| CN1CCN(CCCN2c3ccccc3Sc3ccccc32)CC1 [Perazine] | O |
| C=C(C)[C@@H]1CC=C(CO)CC1 [Perillol] | B |
| CCC[C@H](N[C@@H](C)C(=O)N1[C@H](C(=O)O)C[C@@H]2CCCC[C@@H]21)C(=O)OCC [Perindopril] | B |
| CCC(c1ccccc1)c1c(O)c2ccccc2oc1=O (stereo not shown) [Phenprocoumon] | O |
| O=C1NC(=O)C(c2ccccc2)(c2ccccc2)N1 [Phenytoin] | B |
| CN1C(C(=O)Nc2ccccn2)=C(O)c2ccccc2S1(=O)=O [Piroxicam] | B |

| Compound | Type: Type of interaction |
| --- | --- |
| COc1cc2nc(N3CCN(C(=O)c4ccco4)CC3)nc(N)c2cc1OC [Prazosin] | O |
| C[C@]12C=CC(=O)C=C1CC[C@@H]1[C@@H]2C(=O)C[C@@]2(C)[C@H]1CC[C@]2(O)C(=O)CO [Prednisone] | O |
| CCC1(c2ccccc2)C(=O)NCNC1=O [Primidone] | B |
| CCCC(C(=O)OCCN(CC)CC)(c1ccccc1)c1ccccc1 [Proadifen] | O |
| CCC(=O)[C@@]1(C)CC[C@H]2[C@@H]3CCC4=CC(=O)CCC4=C3CC[C@@]21C [Promegestone] | O |
| CC(=O)N[C@H]1/C(=N/OC(=O)Nc2ccccc2)O[C@H](CO)[C@@H](O)[C@@H]1O [Pugnac] | B |
| O=C(c1ccc(OCCN2CCCCC2)cc1)c1c(-c2ccc(O)cc2)sc2cc(O)ccc12 [Raloxifene] | B |
| O=c1c(O)c(-c2ccc(O)c(O)c2)oc2cc(O)cc(O)c12 [meletin] | B |
| Nc1ccc(O)c(C(=O)O)c1 [mesalamine] | B |
| Cc1cccc(C)c1N(Cn1cccn1)C(=O)CCl [metazachlor] | B |
| Cc1nc2nc(N)[nH]c(=O)c2nc1[C@@H](C)Nc1ccc(C[C@H](O)[C@H](O)[C@H](O)CO[C@H]2O[C@H](COP(=O)(O)O[C@@H](CCC(=O)O)C(=O)O)[C@@H](O)[C@H]2O)cc1 [methanopterin] | B |
| Clc1ccc(COC(Cn2ccnc2)c2ccc(Cl)cc2Cl)c(Cl)c1 (stereo not shown) [miconazole] | O |
| CCCCN1C[C@H](O)[C@@H](O)[C@H](O)[C@H]1CO [miglustat] | O |
| CN1CCN2c3ncccc3Cc3ccccc3C2C1 (stereo not shown) [mirtazapine] | B |
| CN(C)c1cccc2c(S(=O)(=O)NCCCCCN)cccc12 [monodansylcadaverine] | O |
| CCOc1cc(N)c(Cl)cc1C(=O)NCC1CN(Cc2ccc(F)cc2)CCO1 (stereo not shown) [mosapride] | O |
| CC(C)[C@H]1CC[C@H](C(=O)N[C@H](Cc2ccccc2)C(=O)O)CC1 [nateglinide] | O |
